This note sets out measurements from the NIST ThermoML archive (doi:10.1021/je301294a).

± gives the expanded uncertainty stated by the source.

One may read the vapor or sublimation pressure as the pressure of vapour in equilibrium with the condensed phase.

The conditions of this data set: Liquid, Closed cell (Static) method.

For the compound `CCCCCCCCCC(=O)OCC` [ethyl decanoate], the “vapor or sublimation pressure” value runs as follows: (373.15 K) 0.5827 ± 0.036 kPa; (383.15 K) 0.9771 ± 0.025 kPa; (393.15 K) 1.586 ± 0.021 kPa; (403.15 K) 2.498 ± 0.027 kPa; (413.15 K) 3.829 ± 0.035 kPa; (423.15 K) 5.726 ± 0.048 kPa. Also, the “vapor or sublimation pressure” value by setting is: (433.15 K) 8.371 ± 0.066 kPa; (443.15 K) 11.99 ± 0.091 kPa; (453.15 K) 16.84 ± 0.12 kPa.

Consider `CCCCCC(=O)OCC` [ethyl hexanoate], for which the “vapor or sublimation pressure” value runs as follows: (373.15 K) 11.35 ± 0.24 kPa; (383.15 K) 16.69 ± 0.14 kPa; (393.15 K) 23.94 ± 0.19 kPa; (403.15 K) 33.59 ± 0.27 kPa; (413.15 K) 46.18 ± 0.37 kPa; (423.15 K) 62.32 ± 0.49 kPa. In addition, the “vapor or sublimation pressure” value reads like this: (433.15 K) 82.69 ± 0.65 kPa; (443.15 K) 108.02 ± 0.85 kPa; (453.15 K) 139.11 ± 1.1 kPa.

Turning to `CCCCCCCCCCCCCC(=O)OCC` [ethyl tetradecanoate], the “vapor or sublimation pressure” value worked out at 0.0326 ± 0.0025 kPa (373.15 K); 0.0623 ± 0.0044 kPa (383.15 K); 0.1143 ± 0.0078 kPa (393.15 K); 0.2019 ± 0.013 kPa (403.15 K); 0.3448 ± 0.022 kPa (413.15 K); 0.5712 ± 0.036 kPa (423.15 K). Besides, the “vapor or sublimation pressure” value is recorded as 0.9198 ± 0.024 kPa (433.15 K), 1.443 ± 0.021 kPa (443.15 K) and 2.211 ± 0.025 kPa (453.15 K).

In the case of `CCCCCCCCCCCCCC` [tetradecane], the “vapor or sublimation pressure” value runs as follows: (373.15 K) 0.444 ± 0.028 kPa; (383.15 K) 0.7516 ± 0.02 kPa; (393.15 K) 1.23 ± 0.031 kPa; (403.15 K) 1.954 ± 0.044 kPa; (413.15 K) 3.017 ± 0.065 kPa; (423.15 K) 4.543 ± 0.096 kPa. Also, the “vapor or sublimation pressure” value is, setting by setting: (433.15 K) 6.684 ± 0.14 kPa; (443.15 K) 9.627 ± 0.2 kPa; (453.15 K) 13.6 ± 0.1 kPa.
